Measured values: PMC11024012, “Design, synthesis, and biochemical and computational screening of novel oxindole derivatives as inhibitors of Aurora A kinase and SARS-CoV-2 spike/host ACE2 interaction” (Medicinal Chemistry Research, 2024)
Values joined by “and” are separate entries in the source; they are usually repeats but may differ in a detail not shown here. Equal entries are not always repeated. Where two headings read alike, the source gives them in different places.

Experiments:
[1] = molecular target: T1, SARS-CoV-2 Spike RBD/ACE2 (Homo sapiens, UniProt Q9BYF1); test: biochemical; format: binding, SARS-CoV-2 (Wuhan / USA-WA/2020 wild-type) spike; human ACE2; settings: for inhibition at 32 µM: read-out: Spike RBD/ACE2 Percent block at 32 μM
T1 construct: 5 nM HIS-tagged SARS-CoV-2 Spike-RBDs; purchased Sino Biological
T1 sequence (Q9BYF1 18-740): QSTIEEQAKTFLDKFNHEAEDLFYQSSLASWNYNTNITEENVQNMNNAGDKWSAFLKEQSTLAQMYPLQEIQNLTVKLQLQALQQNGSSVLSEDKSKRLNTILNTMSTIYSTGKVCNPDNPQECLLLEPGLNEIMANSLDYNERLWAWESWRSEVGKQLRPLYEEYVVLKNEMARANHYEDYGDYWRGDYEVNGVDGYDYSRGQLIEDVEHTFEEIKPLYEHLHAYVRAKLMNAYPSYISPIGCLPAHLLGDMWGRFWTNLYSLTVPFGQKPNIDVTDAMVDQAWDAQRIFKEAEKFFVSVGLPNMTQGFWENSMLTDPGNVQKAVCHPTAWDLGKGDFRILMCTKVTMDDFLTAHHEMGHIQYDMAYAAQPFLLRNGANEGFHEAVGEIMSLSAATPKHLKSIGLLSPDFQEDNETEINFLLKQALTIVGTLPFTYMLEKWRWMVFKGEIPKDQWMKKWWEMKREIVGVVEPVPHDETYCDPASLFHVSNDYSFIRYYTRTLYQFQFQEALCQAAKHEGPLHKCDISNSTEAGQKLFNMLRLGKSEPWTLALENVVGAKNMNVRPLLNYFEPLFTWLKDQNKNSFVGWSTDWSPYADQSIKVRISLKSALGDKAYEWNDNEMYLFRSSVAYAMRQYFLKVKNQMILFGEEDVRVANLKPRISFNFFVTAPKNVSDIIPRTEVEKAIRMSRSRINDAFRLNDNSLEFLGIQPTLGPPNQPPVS

[2] = molecular target: T2, Aurora A kinase (Homo sapiens, UniProt O14965); test: Aurora A kinase inhibition assay (HTRF kinase assay / Z′-LYTE Kinase Assay Kit ser/thr 01 peptide); format: biochemical; settings: for inhibition at 32 µM: 32 μM compound, read-out: Aurora A Kinase Percent block at 32 μM; for IC50: ATP 500 μM, Aurora A kinase 2.7–4.7 nM
T2 sequence (O14965 1-403): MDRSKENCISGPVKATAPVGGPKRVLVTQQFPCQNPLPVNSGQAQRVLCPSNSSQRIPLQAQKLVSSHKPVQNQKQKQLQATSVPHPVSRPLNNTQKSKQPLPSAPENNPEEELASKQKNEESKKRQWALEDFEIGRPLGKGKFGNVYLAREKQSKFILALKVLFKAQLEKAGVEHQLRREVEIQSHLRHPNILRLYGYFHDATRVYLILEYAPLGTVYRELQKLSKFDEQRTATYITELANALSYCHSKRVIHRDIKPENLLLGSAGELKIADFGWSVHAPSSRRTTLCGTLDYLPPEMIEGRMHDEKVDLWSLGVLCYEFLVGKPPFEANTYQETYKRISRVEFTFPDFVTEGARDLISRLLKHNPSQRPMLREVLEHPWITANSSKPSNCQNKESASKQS
Description: The activities of the synthesized compounds were evaluated using Invitrogen Z′-LYTE® Kinase Assay Kitser/thr 01 peptide. The bioassay was performed using Aurora A kinase at an optimum concentration of 2.7–4.7 nM and ATP at a concentration of 500 μM. Stock solutions of molecules were prepared at 10 mM in DMSO, and then serially diluted in buffer solution to yield final hit concentrations ranging from 0.01 μM to 100 μM. […] The percentage of inhibition and IC50 value were calculated using nonlinear regression of the log (concentration) vs inhibition percentage values using GraphPad Prism 7.04.

CC(=O)Nc1ccc2c(c1)C1(OCC(C)(C)CO1)C(=O)N2 [Compound 4a, N-(5’,5’-dimethyl-2-oxospiro[indoline-3,2’-[1,3]dioxan]-5-yl)acetamide]
inhibition at 32 µM [1]: 0% | inhibition at 32 µM [2]: 9.1 ± 6.5%

CC1(C)COC2(OC1)C(=O)Nc1ccc(NC(=O)Cc3ccc(Cl)cc3)cc12 [Compound 4b, 2-(4-chlorophenyl)-N-(5’,5’-dimethyl-2-oxospiro[indoline-3,2’-[1,3]dioxan]-5-yl)acetamide]
inhibition at 32 µM [1]: 20.1 ± 11.5% | inhibition at 32 µM [2]: 20.9 ± 6.3%

CC1(C)COC2(OC1)C(=O)Nc1ccc(NC(=O)CCN3CCOCC3)cc12 [Compound 4c, N-(5’,5’-dimethyl-2-oxospiro[indoline-3,2’-[1,3]dioxan]-5-yl)-3-morpholinopropanamide]
inhibition at 32 µM [1]: 2 ± 2.9% | inhibition at 32 µM [2]: 1.6 ± 2.1%

CC1(C)COC2(OC1)C(=O)Nc1ccc(NC(=O)c3ccc(Cl)cc3)cc12 [Compound 4d, 4-chloro-N-(5’,5’-dimethyl-2-oxospiro[indoline-3,2’-[1,3]dioxan]-5-yl)benzamide]
inhibition at 32 µM [1]: 22.5 ± 5.7% | inhibition at 32 µM [2]: 17.8 ± 9.2%

CC(=O)Nc1ccc2c(c1)/C(=N\Nc1ccc(C)cc1)C(=O)N2 [Compound 6a, (E)-N-(2-oxo-3-(2-(p-tolyl)hydrazineylidene)indolin-5-yl)acetamide]
inhibition at 32 µM [1]: 21.5 ± 4.8% | inhibition at 32 µM [2]: 82.7 ± 2.7% | IC50 [2]: 0.8 ± 0.1 µM

CC(=O)Nc1ccc2c(c1)/C(=N\Nc1ccc(Cl)cc1Cl)C(=O)N2 [Compound 6b, (E)-N-(3-(2-(2,4-dichlorophenyl)hydrazineylidene)-2-oxoindolin-5-yl)acetamide]
inhibition at 32 µM [1]: 21.5 ± 6.2% | inhibition at 32 µM [2]: 26.4 ± 0.6%

CC(=O)Nc1ccc2c(c1)/C(=N\Nc1ccncc1)C(=O)N2 [Compound 6c, (E)-N-(2-oxo-3-(2-(pyridine-4-yl)hydrazineylidene)indolin-5-yl)acetamide]
inhibition at 32 µM [1]: 5.2 ± 4.1% | inhibition at 32 µM [2]: 58.1 ± 1.7% | IC50 [2]: 5.5 ± 0.5 µM

Cc1ccc(N/N=C2/C(=O)Nc3ccc(NC(=O)Cc4ccc(Cl)cc4)cc32)cc1 [Compound 6d, (E)-2-(4-chlorophenyl)-N-(2-oxo-3-(2-(p-tolyl)hydrazineylidene)indolin-5-yl)acetamide]
inhibition at 32 µM [1]: 3.2 ± 0.4% | inhibition at 32 µM [2]: 54.2 ± 6.7% | IC50 [2]: 22.8 ± 7.9 µM

O=C(Cc1ccc(Cl)cc1)Nc1ccc2c(c1)/C(=N\Nc1ccc(Cl)cc1Cl)C(=O)N2 [Compound 6e, (E)-2-(4-chlorophenyl)-N-(3-(2-(2,4-dichlorophenyl)hydrazineylidene)-2-oxoindolin-5-yl)acetamide]
inhibition at 32 µM [1]: 10.4 ± 12.1% | inhibition at 32 µM [2]: 10 ± 4.9%

O=C(Cc1ccc(Cl)cc1)Nc1ccc2c(c1)/C(=N\Nc1ccc(C(F)(F)F)cc1)C(=O)N2 [Compound 6f, (E)-2-(4-chlorophenyl)-N-(2-oxo-3-(2-(4(trifluoromethyl)phenyl)hydrazineylidene)indolin-5-yl)acetamide]
inhibition at 32 µM [1]: 27.1 ± 3.9% | inhibition at 32 µM [2]: 87.8 ± 2.9% | IC50 [2]: 1.8 ± 0.2 µM

O=C(CCN1CCOCC1)Nc1ccc2c(c1)/C(=N\Nc1ccc(Cl)cc1Cl)C(=O)N2 [Compound 6h, (E)-N-(3-(2-(2,4-dichlorophenyl)hydrazineylidene)-2-oxoindolin-5-yl)-3-morpholinopropanamide]
inhibition at 32 µM [1]: 21.3 ± 5.6% | inhibition at 32 µM [2]: 10.3 ± 7.1%

O=C(CCN1CCOCC1)Nc1ccc2c(c1)/C(=N\Nc1ccc(C(F)(F)F)cc1)C(=O)N2 [Compound 6i, (E)-3-morpholino-N-(2-oxo-3-(2-(4(trifluoromethyl)phenyl)hydrazineylidene)indolin-5-yl)propanamide]
IC50 ([1]; Spike RBD/ACE2 IC50): 12.1 ± 2.9 µM | IC50 ([1]; read-out: Spike RBD/ACE2 IC50): < 30 µM and 22.4 µM | inhibition at 32 µM [1]: 64.5 ± 9% | inhibition at 32 µM [2]: 79.3 ± 1.5% | IC50 [2]: 4.8 ± 0.3 µM

Cc1ccc(N/N=C2/C(=O)Nc3ccc(NC(=O)c4ccc(Cl)cc4)cc32)cc1 [Compound 6j, (E)-4-chloro-N-(2-oxo-3-(2-(p-tolyl)hydrazineylidene)indolin-5-yl)benzamide]
inhibition at 32 µM [1]: 2.8 ± 4% | inhibition at 32 µM [2]: 13.2 ± 8.2%

O=C1Nc2ccc(NC(=O)c3ccc(Cl)cc3)cc2/C1=N\Nc1ccc(Cl)cc1Cl [Compound 6k, (E)-4-chloro-N-(3-(2-(2,4-dichlorophenyl)hydrazineylidene)-2-oxoindolin-5-yl)benzamide]
inhibition at 32 µM [1]: 34.4 ± 20.4% | inhibition at 32 µM [2]: 13.4 ± 14.6%

O=C1Nc2ccc(NC(=O)c3ccc(Cl)cc3)cc2/C1=N\Nc1ccc(C(F)(F)F)cc1 [Compound 6l, (E)-4-chloro-N-(2-oxo-3-(2-(4(trifluoromethyl)phenyl)hydrazineylidene)indolin-5-yl)benzamide]
inhibition at 32 µM [1]: 44.2 ± 9% | inhibition at 32 µM [2]: 19.4 ± 13.5%

O=C1Nc2ccc(NC(=O)c3ccc(Cl)cc3)cc2/C1=N\Nc1ccncc1 [Compound 6m, (E)-4-chloro-N-(2-oxo-3-(2-(pyridine-4-yl)hydrazineylidene)indolin-5-yl)benzamide]
inhibition at 32 µM [1]: 0% | inhibition at 32 µM [2]: 80.2 ± 1.2% | IC50 [2]: 3.1 ± 1.3 µM

CCS(=O)(=O)Nc1ccc2c(c1)/C(=C(/Nc1ccc(CN3CCCCC3)cc1)c1ccccc1)C(=O)N2 [Hesperadin, reference compound]
inhibition at 32 µM [1]: 43.3 ± 10.6% | inhibition at 32 µM [2]: 93.8 ± 0.8% | IC50 [2]: 0.0053 ± 0.0027 µM

Hopeaphenol [reference compound]
Spike RBD/ACE2 Percent block at 32 μM [1]: 83.6 ± 2.0% | IC50 ([1]; read-out: Spike RBD/ACE2 IC50): 0.3 ± 0.1 µM
